Earlier results as cited in patent US20050008633A1, “Chemical and physical modulators of bioavailability of inhaled compositions” (Advanced Inhalation Research Inc., priority 2003, published 2005).

Assays:
[1] = intratracheal instillation in animals, absorption over many hours
[2] = tested on: rat alveolar epithelial cell monolayers; conditions: rat pneumocyte monolayers

Substance | bioavailability [1] | Jmax (i.e., maximum flux) ([2]; net absorption of intact F-Alb) [fmol.cm^−2.s^−1] | Kt (i.e., K(1)) of net absorption of intact F-Alb ([2]; simple saturable process) [µM]
immunoglobulin G | lower than 5% | – | –
F-Alb: fluorescein isothiocyanate (FITC)-labeled bovine serum albumin | – | ~0.15 | ~1.6
